Test results from patent US20230085307A1, “PYRIDAZINONE COMPOUND AND HERBICIDE” (NISSAN CHEMICAL CORPORATION, priority 2019, published 2023).

Experiments:
[1] = test system: lambsquarters; experiment: Test Example 5: herbicidal effect by foliage application, plastic box (Table 20, symbol O); format: in vivo, lambsquarters (Chenopodium album); details: foliage application, 320 g/ha, three weeks after application
Outline: (§1)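 Plants sown in sterilized diluvial soil and grown 14 days in a greenhouse at 25° C to 30° C, then sprayed on the foliage with the compound's emulsion diluted in water to a predetermined herbicide amount. Injury to weeds and crops scored three weeks after application on a visual rating scale.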

[2] = test system: soybean; experiment: Test Example 5: effect on crop by foliage application, plastic box (Table 20, symbol d); format: in vivo; details: 320 g/ha, three weeks after application
Outline: as §1

[3] = test system: late watergrass; experiment: Test Example 1: herbicidal activity, application before weed generation under submerged conditions (Table 16, symbol A); format: in vivo, late watergrass (Echinochloa oryzicola); details: amount of applied herbicide 320 g/ha
Outline: (§2)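 Emulsion formulation, water-diluted to set dose, was put onto the flooded surface (4 cm depth, alluvial soil) the same day weeds were sown and 2.5-leaf rice transplanted. After 3 weeks at 25-30 °C under glass, each species was rated 0 (≤5% kill) to 5 (≥90% kill).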

[4] = test system: persian speedwell; experiment: Test Example 5: herbicidal effect by foliage application, plastic box (Table 20, symbol R); format: in vivo, Persian speedwell (Veronica persica); details: foliage application, 320 g/ha, three weeks after application
Outline: as §1

[5] = test system: wild oat; experiment: Test Example 5: herbicidal effect by foliage application, plastic box (Table 20, symbol I); format: in vivo, wild oat (Avena fatua); details: foliage application, 320 g/ha, three weeks after application
Outline: as §1

[6] = test system: oval-leafed pondweed; experiment: Test Example 1: herbicidal activity, application before weed generation under submerged conditions (Table 16, symbol C); format: in vivo, oval-leafed pondweed (Monochoria vaginalis); details: amount of applied herbicide 320 g/ha
Outline: as §2

[7] = test system: Italian ryegrass; experiment: Test Example 5: herbicidal effect by foliage application, plastic box (Table 20, symbol K); format: in vivo, Italian ryegrass (Lolium multiflorum); details: foliage application, 320 g/ha, three weeks after application
Outline: as §1

[8] = test system: corn; experiment: Test Example 5: effect on crop by foliage application, plastic box (Table 20, symbol c); format: in vivo; details: 320 g/ha, three weeks after application
Outline: as §1

[9] = test system: barnyard grass; experiment: Test Example 5: herbicidal effect by foliage application, plastic box (Table 20, symbol H); format: in vivo, barnyard grass (Echinochloa crus-galli); details: foliage application, 320 g/ha, three weeks after application
Outline: as §1

[10] = test system: windgrass; experiment: Test Example 5: herbicidal effect by foliage application, plastic box (Table 20, symbol L); format: in vivo, windgrass (Apera spica-venti); details: foliage application, 320 g/ha, three weeks after application
Outline: as §1

[11] = test system: wheat; experiment: Test Example 5: effect on crop by foliage application, plastic box (Table 20, symbol e); format: in vivo; details: 320 g/ha, three weeks after application
Outline: as §1

[12] = test system: velvetleaf; experiment: Test Example 5: herbicidal effect by foliage application, plastic box (Table 20, symbol M); format: in vivo, velvetleaf (Abutilon theophrasti); details: foliage application, 320 g/ha, three weeks after application
Outline: as §1

[13] = test system: southern crabgrass; experiment: Test Example 5: herbicidal effect by foliage application, plastic box (Table 20, symbol F); format: in vivo, southern crabgrass (Digitaria ciliaris); details: foliage application, 320 g/ha, three weeks after application
Outline: as §1

[14] = test system: chickweed; experiment: Test Example 5: herbicidal effect by foliage application, plastic box (Table 20, symbol P); format: in vivo, common chickweed (Stellaria media); details: foliage application, 320 g/ha, three weeks after application
Outline: as §1

[15] = test system: transplanted rice; experiment: Test Example 1: effect on crop, application before weed generation under submerged conditions (Table 16, symbol a); format: in vivo; details: amount of applied herbicide 320 g/ha
Description: [Test Example 1] Herbicidal Activity Test by Application before Weed Generation under Submerged Conditions After alluvial soil was placed into 1/10000 are of Wagner pot, water was poured and mixed to form a submerged condition having a water depth of 4 cm. Seeds of late watergrass, Japanese bulrush, and oval-leafed pondweed were sowed in a mixed manner in the aforementioned pot, and then 2.5 leaf stage rice plant seedlings were transplanted thereto. On the day of sowing seeds, the emulsion agent of the compound of the present invention prepared according to Formulation Example 2 was diluted with water so as to achieve a predetermined herbicide amount, and the diluted emulsion agent was applied to the surface of the water. The pot was placed in a greenhouse at 25° C. to 30° C. for growth of the plants. Three weeks after the herbicide application, the effect of the herbicide on each plant was evaluated according to the following criteria. Evaluation Criteria 5: Herbicidal rate of 90% or more (almost completely withered) 4: Herbicidal rate of 70% or more and less than 90% 3: Herbicidal rate of 40% or more and less than 70% 2: Herbicidal rate of 20% or more and less than 40% 1: Herbicidal rate of 5% or more and less than 20% 0: Herbicidal rate of 5% or less (almost no effect)

[16] = test system: green foxtail; experiment: Test Example 5: herbicidal effect by foliage application, plastic box (Table 20, symbol G); format: in vivo, green foxtail (Setaria viridis); details: foliage application, 320 g/ha, three weeks after application
Outline: as §1

[17] = test system: Chinese sprangletop; experiment: Test Example 3: herbicidal effect by foliage application, Wagner pot (Table 18, symbol D); format: in vivo, chinese sprangletop (Leptochloa chinensis); details: 320 g/ha
Outline: (§3)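 Plants were sown in alluvial soil held under 0.1–0.5 cm standing water and grown 14 days in a greenhouse at 25–30 °C. An emulsifiable formulation, water-diluted to the set dose, was then sprayed onto the foliage, and effects were scored three weeks later using previously defined criteria.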

[18] = test system: barnyard grass; experiment: Test Example 3: herbicidal effect by foliage application, Wagner pot (Table 18, symbol H); format: in vivo, barnyard grass (Echinochloa crus-galli); details: 320 g/ha
Outline: as §3

[19] = test system: redroot pigweed; experiment: Test Example 5: herbicidal effect by foliage application, plastic box (Table 20, symbol N); format: in vivo, redroot pigweed (Amaranthus retroflexus); details: foliage application, 320 g/ha, three weeks after application
Outline: as §1

[20] = test system: rapeseed; experiment: Test Example 5: effect on crop by foliage application, plastic box (Table 20, symbol g); format: in vivo; details: 320 g/ha, three weeks after application
Outline: as §1

[21] = test system: rice flat sedge; experiment: Test Example 3: herbicidal effect by foliage application, Wagner pot (Table 18, symbol E); format: in vivo, rice flat sedge (Cyperus iria); details: 320 g/ha
Outline: as §3

[22] = test system: Japanese bulrush; experiment: Test Example 1: herbicidal activity, application before weed generation under submerged conditions (Table 16, symbol B); format: in vivo, Japanese bulrush (Schoenoplectus juncoides); details: amount of applied herbicide 320 g/ha
Outline: as §2

[23] = test system: blackgrass; experiment: Test Example 5: herbicidal effect by foliage application, plastic box (Table 20, symbol J); format: in vivo, blackgrass (Alopecurus myosuroides); details: foliage application, 320 g/ha, three weeks after application
Outline: as §1

[24] = test system: beet; experiment: Test Example 5: effect on crop by foliage application, plastic box (Table 20, symbol f); format: in vivo; details: 320 g/ha, three weeks after application
Outline: as §1

[25] = test system: directly sowed rice; experiment: Test Example 3: effect on crop by foliage application, Wagner pot (Table 18, symbol b); format: in vivo; details: 320 g/ha
Outline: as §3

SMILES: COc1ccc2c(-c3c(O)c(N(Cc4ccccc4)Cc4ccccc4)nn(C)c3=O)c(-c3ccccc3OC)sc2c1 [Compound No. 3-086, 6-(dibenzylamino)-5-hydroxy-4-(6-methoxy-2-(2-methoxyphenyl)benzo[b]thiophen-3-yl)-2-methylpyridazin-3(2H)-one]
- O: lambsquarters, herbicidal effect grade [1]: 1 (Herbicidal rate of 5% or more and less than 20%)
- d: soybean, effect on crop grade [2]: 3 (Herbicidal rate of 40% or more and less than 70%)
- Herbicidal effect, A: late watergrass [3]: 0 (Herbicidal rate of 5% or less (almost no effect))
- R: persian speedwell, herbicidal effect grade [4]: 0 (Herbicidal rate of 5% or less (almost no effect))
- I: wild oat, herbicidal effect grade [5]: 0 (Herbicidal rate of 5% or less (almost no effect))
- Herbicidal effect, C: oval-leafed pondweed [6]: 0 (Herbicidal rate of 5% or less (almost no effect))
- K: Italian ryegrass, herbicidal effect grade [7]: 0 (Herbicidal rate of 5% or less (almost no effect))
- c: corn, effect on crop grade [8]: 0 (Herbicidal rate of 5% or less (almost no effect))
- H: barnyard grass, herbicidal effect grade [9]: 0 (Herbicidal rate of 5% or less (almost no effect))
- L: windgrass, herbicidal effect grade [10]: 0 (Herbicidal rate of 5% or less (almost no effect))
- melting point: 163 to 166 °C
- e: wheat, effect on crop grade [11]: 0 (Herbicidal rate of 5% or less (almost no effect))
- M: velvetleaf, herbicidal effect grade [12]: 0 (Herbicidal rate of 5% or less (almost no effect))
- F: southern crabgrass, herbicidal effect grade [13]: 0 (Herbicidal rate of 5% or less (almost no effect))
- P: chickweed, herbicidal effect grade [14]: 0 (Herbicidal rate of 5% or less (almost no effect))
- Effect on crop, a: transplanted rice [15]: 0 (Herbicidal rate of 5% or less (almost no effect))
- G: green foxtail, herbicidal effect grade [16]: 0 (Herbicidal rate of 5% or less (almost no effect))
- herbicidal effect on Chinese sprangletop (D) [17]: 0 (Herbicidal rate of 5% or less (almost no effect))
- herbicidal effect on barnyard grass (H) [18]: 3 (Herbicidal rate of 40% or more and less than 70%)
- N: redroot pigweed, herbicidal effect grade [19]: 5 (Herbicidal rate of 90% or more (almost completely withered))
- g: rapeseed, effect on crop grade [20]: 5 (Herbicidal rate of 90% or more (almost completely withered))
- herbicidal effect on rice flat sedge (E) [21]: 0 (Herbicidal rate of 5% or less (almost no effect))
- Herbicidal effect, B: Japanese bulrush [22]: 2 (Herbicidal rate of 20% or more and less than 40%)
- J: blackgrass, herbicidal effect grade [23]: 3 (Herbicidal rate of 40% or more and less than 70%)
- f: beet, effect on crop grade [24]: 0 (Herbicidal rate of 5% or less (almost no effect))
- effect on directly sowed rice (b) [25]: 0 (Herbicidal rate of 5% or less (almost no effect))
